Structures can show the parent of a compound that is named as a salt. Marks after values point to notes of the source that are not given here.
Key:
α1D-adrenoreceptors = target: T1, α1D-adrenoreceptors (Rattus norvegicus, UniProt P23944); test: Functional bioassay, isolated rat aorta, noradrenaline contraction; type: biochemical; parameters: had aorta removed, denuded of endothelium and incubated in the Krebs-Henseleit solution; from tissue; host or cells: isolated rat aorta rings; settings: noradrenaline as agonist; for Kb: read-out: pA2 ± S.E.M., α1D (converted)
T1 sequence (P23944 1-561): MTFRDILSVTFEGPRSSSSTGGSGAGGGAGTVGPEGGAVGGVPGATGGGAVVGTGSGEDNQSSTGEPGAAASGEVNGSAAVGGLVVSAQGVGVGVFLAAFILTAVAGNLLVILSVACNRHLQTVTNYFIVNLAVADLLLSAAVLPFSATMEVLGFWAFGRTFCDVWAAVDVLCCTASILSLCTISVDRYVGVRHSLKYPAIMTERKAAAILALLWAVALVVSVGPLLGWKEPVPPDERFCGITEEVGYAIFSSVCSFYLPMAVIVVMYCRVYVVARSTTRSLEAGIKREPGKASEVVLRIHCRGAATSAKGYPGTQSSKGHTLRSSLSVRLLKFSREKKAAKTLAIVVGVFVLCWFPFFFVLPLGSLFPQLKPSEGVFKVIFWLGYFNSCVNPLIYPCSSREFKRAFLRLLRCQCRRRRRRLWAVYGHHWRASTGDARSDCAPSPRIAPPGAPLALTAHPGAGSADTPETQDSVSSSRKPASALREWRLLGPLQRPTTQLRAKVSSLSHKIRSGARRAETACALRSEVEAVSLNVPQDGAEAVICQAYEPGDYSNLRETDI
Procedure: Finally, the influence on α1D-adrenoreceptors was investigated using the isolated rat aorta. […] The aorta rings were maintained at optimal tension of 2.0 g. During 3 h of equilibration tissues were stimulated with noradrenaline three times (0.3 μM). Two cumulative concentration-response curves to noradrenaline, at an interval of 60 min, were established on each tissue both in the presence and absence of antagonist. The incubation with antagonists went on for 30 min. The experiments were carried out in the constant presence of yohimbine (0.1 μM) and propranolol (1 μM) to block α2- and β-adrenoceptors, respectively.
(§1) Data are means ± S.E.M. of at least 4 separate experiments. To establish Hill slopes for the agonist concentration–response curves and calculate EC50 values, curves were fitted to all the data by non-linear regression. The EC50 value in the presence and absence of antagonists was used to ascertain the concentration ratio (CR). Schild analysis was performed.

α1A-adrenoceptors = target: T2, α1A-adrenoceptors (Rattus norvegicus, UniProt P43140); test: Functional bioassay, isolated rat tail artery, noradrenaline contraction; type: biochemical; settings: noradrenaline as agonist; for Kb: read-out: pA2 ± S.E.M., α1A (converted)
T2 construct: the middle part of the ventral caudal artery was removed; from tissue; host or cells: isolated rat tail (ventral caudal) artery rings
T2 sequence (P43140 1-466): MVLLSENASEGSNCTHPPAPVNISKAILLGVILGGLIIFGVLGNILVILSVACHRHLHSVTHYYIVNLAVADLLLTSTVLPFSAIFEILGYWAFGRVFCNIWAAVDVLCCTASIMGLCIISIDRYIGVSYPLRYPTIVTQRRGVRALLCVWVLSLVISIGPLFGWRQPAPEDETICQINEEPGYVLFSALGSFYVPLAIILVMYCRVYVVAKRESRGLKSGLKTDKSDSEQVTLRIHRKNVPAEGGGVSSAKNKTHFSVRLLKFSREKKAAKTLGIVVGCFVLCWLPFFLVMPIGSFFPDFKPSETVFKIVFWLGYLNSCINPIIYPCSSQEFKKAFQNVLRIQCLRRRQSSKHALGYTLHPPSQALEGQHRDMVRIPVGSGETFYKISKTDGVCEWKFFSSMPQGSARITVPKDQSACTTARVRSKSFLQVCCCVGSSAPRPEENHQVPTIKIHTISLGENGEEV
Procedure: The isolated artery, cut into ~4 mm long rings, was then horizontally put up between two stainless steel hooks (diameter 0.15 mm). One hook was fastened to the bottom of the chamber and the other to an isometric FDT10-A force displacement transducer (DMT Model 750TOBS, Denmark), linked with Powerlab 4/26 analyzer (ADInstruments), and processed by LabChart 7 software. […] The initial optimal tissues tension was set at 0.75 g. Chloroethylclonidine (3 μM) as the preferential α1B-adrenoreceptor alkylating agent was used during incubation and after 30 min it was completely washed off. Through 100 min of equilibration tissues were stimulated with noradrenaline (1 μM) four times with washing out until the contractile response become constant. Two cumulative concentration-response curves to noradrenaline, at an interval of 60 min, were established on each arterial ring both in the presence and absence of antagonist. The incubation with antagonists went on for 30 min. The experiments were carried out in the constant presence of yohimbine (0.1 μM) and propranolol (1 μM) to block α2- and β-adrenoceptors, respectively in order to minimize the involvement of these adrenoceptors in the response to noradrenaline.
as §1

[1] = tested on: blood pressure in normotensive rats; test: Influence on blood pressure in normotensive rats; type: in vivo, rat; parameters: Systolic pressure / Diastolic pressure: unit not given beside the values; settings: for Diastolic pressure / Systolic pressure: anesthetized normotensive rats; for Diastolic pressure / Systolic pressure / reduction of diastolic blood pressure / reduction of systolic blood pressure: lowest hypotensive dose i.p.; for lowest hypotensive dose / reduction of diastolic blood pressure / reduction of systolic blood pressure: normotensive rats; for lowest hypotensive dose: lowest dose significantly lowering systolic and diastolic blood pressure; for reduction of diastolic blood pressure / reduction of systolic blood pressure: period of significant effect
Procedure: The tested compounds were administered i.p. after 15 min of stabilization period. The compounds were administered at the dose 10 mg/kg.

[2] = tested on: adrenaline-induced arrhythmia in rats; test: Therapeutic antiarrhythmic activity in adrenaline-induced arrhythmia; type: in vivo, rat; settings: i.v. at ED84 at the peak of adrenaline-induced arrhythmia (20 μg/kg)
Procedure: The ECG was recorded constantly for 5 min as well as in the 10th and 15th min of the experiment.

α1-adrenoceptor = α1-adrenoceptor radioligand binding assay ([3H]-prazosin, rat cerebral cortex); settings: read-out: Adrenergic receptors Ki α1
Procedure: The α1- and β1-adrenoceptor radioligand binding assay was performed on rat cerebral cortex. […] The cell pellet was resuspended in the Tris–HCl buffer and centrifuged again. Radioligand binding assays were performed in plates (MultiScreen/Millipore). […] The incubation was terminated by rapid filtration through glass fiber filters (Whatman GF/C) using a vacuum manifold (Millipore). The filters were then washed twice with the assay buffer and placed in scintillation vials with a liquid scintillation cocktail. […] All the assays were made in duplicate and the inhibitory constants (Ki) were estimated.
LO–labeled ligand concentration, KD–dissociation constant of labeled ligand

[3] = Control (before administration)

Row | SMILES | Schild slope ± S.E.M., α1D (α1D-adrenoreceptors) | Kb (α1D-adrenoreceptors) [nM] | Schild slope ± S.E.M., α1A (α1A-adrenoceptors) | Kb (α1A-adrenoceptors) [nM] | Diastolic pressure ([1]; 5 min) | Systolic pressure ([1]; 5 min) | Diastolic pressure ([1]; 10 min) | Systolic pressure ([1]; 10 min) | Diastolic pressure ([1]; 20 min) | Systolic pressure ([1]; 20 min) | Diastolic pressure ([1]; 30 min) | Systolic pressure ([1]; 30 min) | Diastolic pressure ([1]; 40 min) | Systolic pressure ([1]; 40 min) | Diastolic pressure ([1]; 50 min) | Systolic pressure ([1]; 50 min) | Diastolic pressure ([1]; 60 min) | Systolic pressure ([1]; 60 min) | Diastolic pressure [1, 3] | Systolic pressure [1, 3] | also measured
1 | COc1ccccc1N1CCN(CCOCCOc2c(C)cccc2C)CC1.Cl [HBK-14, 1-[(2,6-dimethylphenoxy)ethoxyethyl]-4-(2-methoxyphenyl)piperazine hydrochloride] | 1.09 ± 0.10 | 1.38 | 0.97 ± 0.15 | 10.2 | 105.2 ± 6.1 | 135.2 ± 7.3 | 103.0 ± 5.8 | 131.2 ± 6.8^c | 97.3 ± 6.0^c | 127.3 ± 6.6^c | 95.2 ± 6.1^c | 125.3 ± 7.0^c | 92.3 ± 6.2^c | 124.2 ± 7.0^c | 94.0 ± 5.8^c | 127.3 ± 6.3^c | 98.0 ± 5.1^c | 128.2 ± 5.4^c | 106.7 ± 4.3 | 138.3 ± 6.8 | lowest hypotensive dose [1]: 0.625 mg/kg; reduction of diastolic blood pressure [1]: 9−14%; reduction of systolic blood pressure [1]: 5−10%
2 | COc1ccccc1N1CCN(CCOCCOc2c(C)cccc2Cl)CC1.Cl [HBK-15, 1-[(2-chloro-6-methylphenoxy)ethoxyethyl]-4-(2-methoxyphenyl)piperazine hydrochloride] | 1.09 ± 0.09 | 1.26 | 1.01 ± 0.18 | 19.5 | 96.3 ± 3.7^c | 121.2 ± 4.8^c | 92.0 ± 4.3^c | 116.3 ± 6.0^c | 88.5 ± 3.5^c | 112.0 ± 5.5^c | 88.3 ± 2.9^c | 112.2 ± 4.2^c | 91.0 ± 3.2^c | 112.5 ± 4.4^c | 90.2 ± 2.7^c | 113.2 ± 3.7^c | 93.0 ± 1.2^c | 117.3 ± 3.0^c | 110.3 ± 2.2 | 139.0 ± 2.7 | lowest hypotensive dose [1]: 5.0 mg/kg; reduction of diastolic blood pressure [1]: 13−20%; reduction of systolic blood pressure [1]: 13−19%
3 | COc1ccccc1N1CCN(CCCOc2cc(C)ccc2Cl)CC1 [HBK-16, 1N-[3-(2-chloro-5-methylphenoxy)propyl]-4N-(2-methoxyphenyl)piperazine hydrochloride] | 1.11 ± 0.12 | 0.724 | 1.06 ± 0.08 | 1.78 | 95.0 ± 5.1 | 123.2 ± 3.3 | 93.7 ± 5.1 | 121.2 ± 3.2 | 91.3 ± 5.0^b | 114.8 ± 2.0^b | 89.8 ± 5.2^a | 113.0 ± 2.4^c | 87.7 ± 4.7^b | 110.3 ± 2.1^c | 88.0 ± 4.3^c | 110.8 ± 2.0^b | 87.7 ± 4.6^b | 110.7 ± 1.9^c | 97.0 ± 4.3 | 124.7 ± 3.1 | therapeutic antiarrhythmic activity (premature ventricular contractions) [2]: restored normal heart rhythm; lowest hypotensive dose [1]: 0.1 mg/kg; reduction of diastolic blood pressure [1]: 6−10%; reduction of systolic blood pressure [1]: 8−11%; Ki (α1-adrenoceptor): 5 nM
4 | COc1ccccc1N1CCN(CCCOc2c(C)cc(C)cc2C)CC1 [HBK-18, 1N-[3-(2,4,6-trimethylphenoxy)propyl]-4N-(2-methoxyphenyl)piperazine hydrochloride] | 1.01 ± 0.05 | 1.2 | 1.10 ± 0.06 | 3.24 | 90.7 ± 7.1 | 117.7 ± 9.1 | 85.5 ± 7.5 | 112.7 ± 7.7 | 79.5 ± 7.8^a | 96.5 ± 8.9^b | 78.3 ± 7.2^a | 93.8 ± 8.7^c | 78.8 ± 7.0^b | 91.8 ± 10.0^b | 78.7 ± 5.6^c | 90.7 ± 8.6^b | 77.5 ± 6.0^b | 90.2 ± 9.2^a | 94.3 ± 6.4 | 125.7 ± 8.2 | therapeutic antiarrhythmic activity (premature ventricular contractions) [2]: restored normal heart rhythm; lowest hypotensive dose [1]: 0.01 mg/kg; reduction of diastolic blood pressure [1]: 16−18%; reduction of systolic blood pressure [1]: 23−28%; Ki (α1-adrenoceptor): 5.2 nM
5 | COc1ccccc1N1CCN(CCCOc2cc(C)cc(C)c2C)CC1 [HBK-19, 1N-[3-(2,3,5-trimethylphenoxy)propyl]-4N-(2-methoxyphenyl)piperazine hydrochloride] | 1.03 ± 0.09 | 4.9 | 0.96 ± 0.05 | 1.23 | 94.5 ± 2.6 | 121.0 ± 4.0^b | 87.5 ± 0.4^c | 116.0 ± 3.5^c | 89.0 ± 2.3^b | 111.5 ± 3.2^c | 87.0 ± 2.9^c | 110.0 ± 2.3^c | 84.5 ± 1.4^c | 107.5 ± 3.2^c | 83.5 ± 1.4^c | 106.0 ± 3.5^c | 84.0 ± 0.6^c | 106.0 ± 4.0^c | 98.0 ± 4.6 | 127.0 ± 4.0 | therapeutic antiarrhythmic activity (premature ventricular contractions) [2]: restored normal heart rhythm; lowest hypotensive dose [1]: 0.625 mg/kg; reduction of diastolic blood pressure [1]: 9−15%; reduction of systolic blood pressure [1]: 5−17%; Ki (α1-adrenoceptor): 22.7 nM
